A short description of data set [1]: Metabolites of DCDQ identified in rats by LC/MS analysis (Table 18). The following applies: P = plasma, U = urine, B = brain, F = feces. Type of data set: in vivo, Sprague-Dawley rats. Here is the method: An Agilent Model 1100 HPLC system (Agilent Technologies, Wilmington, Del.) including an autosampler and diode array UV detector was used for LC/MS analysis of plasma and urine samples. The UV detector was set to monitor 200 to 400 nm. For selected LC/MS analyses, radiochromatograms were acquired using a β-Ram model 3 radioactivity flow detector (IN/US Systems Inc., Tampa, Fla.) equipped with a solid scintillant flow cell. Fecal samples were also analyzed using a Waters Alliance model 2690 HPLC system. It was equipped with a built-in autosampler and a model 996 diode array UV detector set to 210-350 nm. The HPLC flow was split between a Radiomatic model 150TR flow scintillation analyzer (Perkin Elmer) and the mass spectrometer. Other HPLC conditions were the same as condition B described above.
The mass spectrometer used for metabolite characterization for plasma and urine was a Micromass Q-TOF-2 quadrupole time-of-flight hybrid mass spectrometer (Waters). The mass spectrometer was equipped with an electrospray ionization (ESI) interface and operated in the positive ionization mode. Collision energy settings of 5 and 30 eV were used for full MS and MS/MS scans, respectively. Settings for the mass spectrometer are listed below.
A Micromass Quattro Micro mass spectrometer (Waters) was also used to analyze the fecal samples. It was equipped with an electrospray ionization (ESI) interface and operated in the positive ionization mode. Settings for the mass spectrometer are listed below.
LC/MS/MS in the selected reaction-monitoring (SRM) mode (LC/SRM) was conducted with the triple quadruple mass spectrometer to monitor DCDQ and its metabolites in fecal samples. The transitions monitored are listed below.

Data set [2] in a line: Rat urinary excretion and metabolite profiles after single oral 5 mg/kg [14C]DCDQ. The format is in vivo, Sprague-Dawley rats. The following applies: for Chromatographic distribution of radioactivity in male rat urine / Percentage of dose for urinary metabolites in rats: oral 5 mg/kg, mean n = 3; for radioactive dose recovered in urine: male rats. As to the method:
At sacrifice, blood samples were collected by cardiac puncture into tubes containing EDTA as the anticoagulant and placing them on ice. Aliquots of 50 μL were removed for combustion and determination of radioactivity content. Plasma was immediately obtained from the remaining blood by centrifugation at 4° C. Brains were excised after perfusion with 50 mL of chilled sterile saline. Urine samples were collected on dry ice at intervals of 0-8 and 8-24 hour post-dosing. Feces were collected at intervals of 0-8 and 8-24 hr post-dosing at room temperature and were homogenized as described previously. The biological specimens and aliquots of the dosing solution at pre- and post-dose were stored at approximately −70° C. until analyzed.
Plasma (20 μL) and urine (50 μL) aliquots were analyzed for radioactivity concentrations. Radioactivity determinations of dose, plasma and urine were made with a Tri-Carb Model 3100 TR/LL liquid scintillation counter (LSC) (Perkin Elmer) using 10 mL of Ultima Gold as the scintillation fluid.
Urine was analyzed for radioactivity concentration as and analyzed for metabolite profiles by direct injection onto the HPLC column. LC/MS analyses for metabolite identification were also carried out with urine samples.
A Waters model 2690 HPLC system (Waters Corp., Milford, Mass.) with a built-in autosampler was used for analysis. Separations were accomplished on a Phenomenex Luna C18(2) column (150×2.0 mm, 5 μm) (Phenomenex, Torrance, Calif.). The sample chamber of the autosampler was maintained at 4° C., while the column was at ambient temperature of about 20° C. A variable wavelength UV detector set to monitor 250 nm and a Flo-One β Model A525 radioactivity detector described above were used for data acquisition. The HPLC mobile phase consisted of 10 mM ammonium acetate, pH 4.5 (A) and methanol (B), and was delivered at 0.2 mL/min. Chromatographic condition A was used for dose analysis, while condition B was used for analysis of urine and plasma, brain and fecal extracts.

The nature of data set [3]: Incubation of [14C]DCDQ with mouse liver microsomes. Type of data set: in vitro ADME, CD-1 mice. Here is the method:
(§1) [^14C]DCDQ was mixed with non-radiolabeled DCDQ (1:3 or 1:5) in the incubations. Microsomal incubations consisted of [^14C]DCDQ, magnesium chloride (10 mM) and liver microsomes incubated in 0.5 mL of 0.1 M potassium phosphate buffer, pH 7.4. [^14C]DCDQ (20 μL) in water was added to the incubation tubes containing buffer, magnesium chloride solution and microsomes. After mixing, the tubes were pre-incubated for 2 minutes in a shaking water bath at 37° C. The reactions were initiated by the addition of UDPGA or the NADPH regenerating system. UDPGA was added to incubations as a 50 μL aliquot of a 20 mM solution in water, to give a final concentration of 2 mM. An NADPH regenerating system (30 μL) was added to incubations to evaluate CYP450-mediated metabolism. The NADPH regenerating system consisted of glucose-6-phosphate (2 mg/mL), glucose-6-phosphate dehydrogenase (0.8 units/mL) and NADP^+ (2 mg/mL). Control incubations were conducted under the same conditions, but without the NADPH generating system, UDPGA or microsomes. All incubations were performed in duplicate. Incubations were stopped by the addition of 0.5 mL ice-cold methanol. Samples were vortex-mixed. Denatured proteins were separated by centrifugation at 4300 rpm and 4° C. for 10 minutes (Model T21 super centrifuge, Sorvall). The protein pellets were extracted with 0.5 mL of methanol. The supernatant was combined for each sample, mixed and evaporated to a volume of about 0.3 mL under a nitrogen stream in a Zymark TurboVap LV evaporator (Caliper Life Science, Hopkinton, Mass.). The concentrated sample was centrifuged and aliquots were radioassayed and analyzed by HPLC. This method recovered an average of 92.1% of the radioactivity from the reaction mixture.
(§2) To evaluate species differences in cytochrome P450- and UGT-mediated metabolism, [^14C]DCDQ was incubated for 20 minutes with 0.5 mg/mL liver microsomal proteins from mice, rats, dogs or humans in the presence of the NADPH regenerating system or UDPGA. The assay conditions were the same as described above, and DCDQ concentrations were 12 μM and 56 μM for cytochrome P450- and UGT-mediated metabolism, respectively.
(§3) A Waters model 2690 HPLC system (Waters Corp., Milford, Mass.) with a built-in autosampler was used for analysis. Separations were accomplished on a Phenomenex Luna C18(2) column (2×150 mm, 5 μm) (Phenomenex, Torrance, Calif.) coupled with a filter (4×2 mm) cartridge. A variable wavelength UV detector set to monitor 250 nm and Flo-One β Model A525 radioactivity flow detector (Perkin Elmer) with a 250 μL LQTR flow cell were used for data acquisition. The flow rate of Ultima Flow M scintillation fluid was 1 mL/min, providing a mixing ratio of scintillation cocktail to mobile phase of 5:1. […]
Background: Microsomes from liver hold many membrane-bound enzymes, among them those of drug oxidation.

Data set [4] can be described thus: Incubation of [14C]DCDQ with rat liver microsomes. The format is in vitro ADME, Sprague Dawley rats. Here is the method:
as §1, §2, §3

The mark [5] stands for this setting: NADPH regenerating system, 12 μM DCDQ, 20 min.

As for `c1cc2c3c(c1)[C@H]1CCC[C@H]1CN3CCNC2` [DCDQ, (9aR,12aS)-4,5,6,7,9,9a,10,11,12,12a-decahydro-cyclopenta[c][1,4]diazepine[6,7,1-ij]quinoline, reference compound], the Matrix result in data set [1] was “P, U, F”. Moreover, in data set [2] (0-8 hr), the “Chromatographic distribution of radioactivity in male rat urine” value (shortened to “Chromatographic distribution”) was 1.29% and the “Percentage of dose for urinary metabolites in rats” value (“Percentage of dose” below) is given as 0.42%. In data set [2] (8-24 hr), the “Chromatographic distribution” value was found to be 1.46% and the “Percentage of dose” value turned out to be 0.51%.

With `OC1CN2C[C@@H]3CCC[C@@H]3c3cccc(c32)CN1` (stereo partly shown) [Metabolite M1, hydroxy DCDQ], the “metabolite detected in microsomal incubation” value (“metabolite detected” below) in data set [3] (setting [5]) and in data set [4] (setting [5]) was “not detected” each time. The Matrix result in data set [1] is “P, U, B”. Moreover, the figures for the “Chromatographic distribution” value in data set [2] (0-8 hr) and in data set [2] (8-24 hr) were 26.9% and 22.5%, respectively. For the same compound, the “Percentage of dose” value came to 8.67% in data set [2] (0-8 hr), 16.4% in data set [2] (0-24 hr) and 7.74% in data set [2] (8-24 hr).

With `OC1[C@@H]2CCC[C@@H]2c2cccc3c2N1CCNC3` (stereo partly shown) [Metabolite M2, hydroxy DCDQ], the “metabolite detected” value was “only metabolite detected” in data set [3] (setting [5]) and “observed” in data set [4] (setting [5]). In addition, in data set [1], the Matrix entry is recorded as “P, U”. Besides, the figures for the “Chromatographic distribution” value in data set [2] (0-8 hr) and in data set [2] (8-24 hr) were 9.51% and 5.83%, respectively. Also, the “Percentage of dose” value is 3.16% in data set [2] (0-8 hr), 5.09% in data set [2] (0-24 hr) and 1.94% in data set [2] (8-24 hr).

For `[O-][N+]12CCN=Cc3cccc(c31)[C@H]1CCC[C@H]1C2` (stereo partly shown) [Metabolite M5, DCDQ imine N-oxide], the “metabolite detected” value in data set [3] (setting [5]) and in data set [4] (setting [5]) was “not mouse or rat” in each case.

Regarding `O=C(O)[C@H]1O[C@@H](OC(=O)N2CCN3C[C@@H]4CCC[C@@H]4c4cccc(c43)C2)[C@H](O)[C@@H](O)[C@@H]1O` [Metabolite M6, carbamoyl glucuronide of DCDQ], the “metabolite detected” value is listed as “not mouse or rat” in data set [3] (UDPGA, 56 μM DCDQ) and “not mouse or rat” in data set [4] (UDPGA, 56 μM DCDQ).

With `O=C1CC[C@@H]2c3cccc4c3N(CCNC4)C[C@H]12` [Metabolite M7, 17-keto DCDQ], the Matrix entry in data set [1] is reported as “P, U, B”. The “Chromatographic distribution” value came out at 9.68% in data set [2] (0-8 hr) and 10.1% in data set [2] (8-24 hr). Also, the “Percentage of dose” value in data set [2] (0-8 hr) stood at 3.16%; in data set [2] (0-24 hr) it was 6.60%; in data set [2] (8-24 hr) it was 3.44%.

Regarding `c1cc2c3c(c1)[C@H]1CCC[C@H]1CN3CCNC2` [[^14C]DCDQ], the entries for the “radioactive dose recovered in urine” value in data set [2] (0-8 hour period), in data set [2] (8-24 hour period) and in data set [2] (first 24 hours post-dose) were 32.5%, 34.2% and 66.7±5.0%, respectively.

The values are drawn from patent US20060111305A1, “Metabolites of certain [1,4]diazepino[6,7,1-ij]quinoline derivatives and methods of preparation and use thereof” (Wyeth, priority 2004, published 2006).
